Key:
C. albicans CAI4 [1] = assay: Spermidine uptake rate; assay type: cell-based, Candida albicans; details: method as in earlier work
From the text: (§1) Next, we investigated the role of altered Hst 5 uptake mechanisms between C. albicans and C. glabrata as a probable reason for their differential susceptibilities to Hst 5. C. albicans contains six DUR transporter family members that are responsible for polyamine (spermidine, spermine, and putrescine) uptake. […] C. glabrata CAGL0K03157g product has 54% identity and 71% similarity with C. albicans DUR3 (orf19.781); and C. glabrata CAGL0108613g product has 51% identity and 69% similarity with C. albicans DUR31 (orf19.6656). However, C. glabrata CAGL0K03157g (CaDUR3 homologue) gene product has even higher homology with S. cerevisiae DUR3, having 65% identity and 76% similarity. The in silico predicted function of these C. glabrata proteins is transmembrane transport; however their specific functions remain uncharacterized. […] There were no significant differences in rates of spermidine uptake among the three strains of C. glabrata (0.163±0.015 nanomoles/10^6 cells/min) compared to C. albicans (0.160±0.014 nanomoles/10^6 cells/min); thus showing polyamine transporter activity is equivalent between C. albicans and C. glabrata strains in respect to spermidine.

[2] = tested on: C. glabrata Cg10, Cg30, Cg32; assay: Spermidine uptake rate; assay type: cell-based, Candida glabrata; details: three strains of C. glabrata; method as in earlier work
From the text: as §1

C. albicans CAI4 [3] = assay: Candidacidal assay (microdilution plate); assay type: cell-based, Candida albicans; details: 31 µM Hst 5; 1×10^6 cells, 10 mM NaPB pH 7.2, 30°C, 30 min, colony counts after 48 h; n = 4
Method: (§2) Candidacidal assays were performed using microdilution plate assays. Briefly, single colonies of C. albicans CAI4, C. glabrata Cg10, Cg30, Cg32, and BG14 strains were inoculated in YPD media; Cg BG14-CaDUR3, Cg BG14-CaDUR31, and Cg BG14-Empty vector were inoculated in YNB media without uridine and grown overnight (A600 = 1.6–1.8). Cells were washed twice with 10 mM sodium phosphate buffer (NaPB) (pH 7.2) and cells (1×10^6) were incubated at 30°C for 30 min with different concentrations of Hst 5. Aliquots of 500 cells were spread onto YPD (WT strains) or YNB - uridine (C. glabrata expressing C. albicans DUR genes) agar plates and incubated for 48 h to visualize surviving colonies. Blocking experiments were performed using cells pre-incubated with β-1,3-glucan monoclonal antibody (Biosupplies) at room temperature for 30 min. All killing assays were performed in triplicate and repeated at least thrice. Percent cell killing was calculated as 1−(number of colonies from suspensions with Hst 5/numbers of colonies from control suspensions)×100.

[4] = tested on: C. glabrata BG14 cells not expressing C. albicans DUR genes; assay: Candidacidal assay (microdilution plate); assay type: cell-based, Candida glabrata; details: Hst 5 60 µM; 10 mM NaPB pH 7.2, 30°C, 30 min, colony counts; n = 3
Method: as §2

[5] = tested on: C. glabrata Cg 90030 (Cg30); assay: Candidacidal assay (microdilution plate); assay type: cell-based, Candida glabrata; details: Hst 5 up to 31 µM; 10 mM NaPB pH 7.2, 30°C, 30 min, colony counts; n = 4
Method: as §2

[6] = tested on: C. glabrata Cg 90032 (Cg32); assay: Candidacidal assay (microdilution plate); assay type: cell-based, Candida glabrata; details: Hst 5 up to 31 µM; 10 mM NaPB pH 7.2, 30°C, 30 min, colony counts; n = 4
Method: as §2

[7] = tested on: C. glabrata Cg 931010 (Cg10); assay: Candidacidal assay (microdilution plate); assay type: cell-based, Candida glabrata; details: 31 µM Hst 5; 1×10^6 cells, 10 mM NaPB pH 7.2, 30°C, 30 min, colony counts; n = 4
Method: as §2

Cg BG14-CaDUR31 = assay: Candidacidal assay (microdilution plate); assay type: cell-based, Candida glabrata; details: Hst 5 60 µM; 10 mM NaPB pH 7.2, 30°C, 30 min, colony counts; n = 3
Method: as §2

Cg BG14-CaDUR3 = assay: Candidacidal assay (microdilution plate); assay type: cell-based, Candida glabrata; details: Hst 5 60 µM; 10 mM NaPB pH 7.2, 30°C, 30 min, colony counts; n = 3
Method: as §2

C. albicans CAI4 biofilm = assay: Confocal microscopy of F-Hst 5 in 24 h biofilms; assay type: cell-based, Candida albicans; details: FITC-labeled Hst 5 31.5 µM, 24 h biofilm
Method: (§3) CAI4, Cg10, Cg30, Cg32, BG14, Cg BG14-CaDUR3, Cg BG14-CaDUR31, and Cg BG14-Empty vector were treated with fluorescein isothiocyanate FITC-labeled Hst 5 (F-Hst 5, synthesized by Genemed Synthesis, Inc.) to observe relative binding and uptake of salivary Hst 5 as described previously. […] Cells grown overnight (A600 = 0.8–1.0) were diluted to obtain 10^6 cells/ml in NaPB. Chambered cover glass slides (Lab-TekII) were coated with concanavalin A (100 µg/ml) for 30 min and washed twice with water. Cells (1×10^6) were fixed on concanavalin A-coated slides for 30 min at room temperature. The plates were then washed twice with 10 mM NaPB followed by addition of 31 µM FITC-Hst 5. Images were captured using a Zeiss LSM 510 Meta Confocal Microscope and Plan Apochromat 63/1.4 (oil) objective. The average fluorescence intensity was calculated using ImageJ software. Confocal images of cells were compared to determine the relative binding and uptake of Hst 5. Hst 5 binding to Candida biofilms was analyzed using confocal microscopy on biofilms of CAI4 and Cg30 strains. Biofilms were formed by addition of 500 µl cells (cultured overnight in YPD at 28°C, then washed and diluted to OD600 = 1.0 in PBS) to each well of culture dishes (MatTek, MA) and incubated at 37°C for 3 h. Non-adherent cells were removed by gentle washing and 500 µl media was added to each well. The dishes were then incubated at 37°C for 24 h to allow biofilm formation. F-Hst 5 (31.5 µM) was added to each well. Biofilms were measured using a series of horizontal (x–y) optical sections with a thickness of 0.38 µm taken throughout the full length of the biofilm. Z-stack images and thickness measurements of biofilms were obtained using AxioVision 4.4 software (Carl Zeiss LSM Micro Imaging). […] The total number of F-Hst 5 labeled cells was quantified in CAI4 and Cg30 biofilms manually from three independent stacks originating at the Bottom (2–3 µm), Middle (6–8 µm) or Top (12–16 µm) regions of the biofilm. Values were plotted using Graphpad Prism 5 software.

C. glabrata Cg30 biofilm = assay: Confocal microscopy of F-Hst 5 in 24 h biofilms; assay type: cell-based, Candida glabrata; details: FITC-labeled Hst 5 31.5 µM, 24 h biofilm
Method: as §3, with “Confocal images of cells were compared to determine the relative binding and uptake of Hst 5.” left out, “Biofilms were formed by addition of 500 µl cells (cultured overnight in YPD at 28°C, then washed and diluted to OD600 = 1.0 in PBS) to each well of culture dishes (MatTek, MA) and incubated at 37°C for 3 h. Non-adherent cells were removed by gentle washing and 500 µl media was added to each well. The dishes were then incubated at 37°C for 24 h to allow biofilm formation. F-Hst 5 (31.5 µM) was added to each well.” left out, “biofilm.” for “biofilm. Z-stack images and thickness measurements of biofilms were obtained using AxioVision 4.4 software (Carl Zeiss LSM Micro Imaging).”, “Values were plotted using Graphpad Prism 5 software.” left out

[8] = tested on: C. glabrata strains (ATCC 90030, 2001 and 64677); details: strains completely insensitive even at high concentrations; ref [10]; cited from earlier work
From the text: Histatins are basic histidine-rich proteins secreted in human parotid and submandibular-sublingual saliva in humans and higher primates. Histatin 5 (Hst 5) is a proteolytic cleavage product of the larger Histatin 3 family member, [6]. […] However, ma ...

Compound	rate of spermidine uptake (C. albicans CAI4 [1])	rate of spermidine uptake [2]	cell death (killing) (C. albicans CAI4 [3])	killing [4]	maximal killing [5]	maximal killing [6]	killing [7]	killing (Cg BG14-CaDUR31)	killing (Cg BG14-CaDUR3)	Hst 5 containing cells, total biofilm (C. albicans CAI4 biofilm)	percentage of Hst 5 containing cells, bottom regions (C. albicans CAI4 biofilm)	percentage of Hst 5 positive cells, middle regions (8 µm) (C. albicans CAI4 biofilm)	Hst 5 containing cells, total biofilm (C. glabrata Cg30 biofilm)	percentage of Hst 5-labeled cells, bottom regions (2.5 µm) (C. glabrata Cg30 biofilm)	IC50 [8]
NCCCCNCCCN [spermidine]	0.160±0.014 nanomoles/10^6 cells/min	0.163±0.015 nanomoles/10^6 cells/min													
Histatin 5 [Hst 5]			65%	25%	8%	10%	22%	55%	43%	28%	≈ 25%	33%	17%	20%	> 225 µg/mL
